Test results as given in PubChem BioAssay (NCI).
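Grown in 96-well plates, cells were treated for 48 hours with each compound at five concentrations. Insufficient inhibition: endpoint recorded as highest concentration tested. TGI: total growth inhibition.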

How the values were obtained:
Experiment in all cases: DTP human tumour cell line panel, 48 h
786-0 renal = test system: 786-0 renal
A498 renal = test system: A498 renal
A549 NSCLC = test system: A549 NSCLC
ACHN renal = test system: ACHN renal
BT-549 breast = test system: BT-549 breast
CAKI-1 renal = test system: CAKI-1 renal
CCRF-CEM leukemia = test system: CCRF-CEM leukemia
COLO 205 colon = test system: COLO 205 colon
DU-145 prostate = test system: DU-145 prostate
EKVX NSCLC = test system: EKVX NSCLC
HCC-2998 colon = test system: HCC-2998 colon
HCT-116 colon = test system: HCT-116 colon
HCT-15 colon = test system: HCT-15 colon
HL-60(TB) leukemia = test system: HL-60(TB) leukemia
HOP-62 NSCLC = test system: HOP-62 NSCLC
HOP-92 NSCLC = test system: HOP-92 NSCLC
HS 578T breast = test system: HS 578T breast
HT29 colon = test system: HT29 colon
IGROV1 ovarian = test system: IGROV1 ovarian
K-562 leukemia = test system: K-562 leukemia
KM12 colon = test system: KM12 colon
LOX IMVI melanoma = test system: LOX IMVI melanoma
M14 melanoma = test system: M14 melanoma
MALME-3M melanoma = test system: MALME-3M melanoma
MCF7 breast = test system: MCF7 breast
MDA-MB-231 breast = test system: MDA-MB-231 breast
MDA-MB-435 = test system: MDA-MB-435
MDA-N = test system: MDA-N
MOLT-4 leukemia = test system: MOLT-4 leukemia
NCI-H226 lung = test system: NCI-H226 lung
NCI-H23 lung = test system: NCI-H23 lung
NCI-H460 lung = test system: NCI-H460 lung
NCI-H522 lung = test system: NCI-H522 lung
NCI/ADR-RES ovarian = test system: NCI/ADR-RES ovarian
OVCAR-3 ovarian = test system: OVCAR-3 ovarian
OVCAR-4 ovarian = test system: OVCAR-4 ovarian
OVCAR-5 ovarian = test system: OVCAR-5 ovarian
OVCAR-8 ovarian = test system: OVCAR-8 ovarian
PC-3 prostate = test system: PC-3 prostate
RPMI-8226 leukemia = test system: RPMI-8226 leukemia
RXF 393 renal = test system: RXF 393 renal
SF-268 CNS = test system: SF-268 CNS
SF-295 CNS = test system: SF-295 CNS
SF-539 CNS = test system: SF-539 CNS
SK-MEL-2 melanoma = test system: SK-MEL-2 melanoma
SK-MEL-28 melanoma = test system: SK-MEL-28 melanoma
SK-MEL-5 melanoma = test system: SK-MEL-5 melanoma
SK-OV-3 ovarian = test system: SK-OV-3 ovarian
SN12C renal = test system: SN12C renal
SNB-19 CNS = test system: SNB-19 CNS
SNB-75 CNS = test system: SNB-75 CNS
SR leukemia = test system: SR leukemia
SW-620 colon = test system: SW-620 colon
T-47D breast = test system: T-47D breast
TK-10 renal = test system: TK-10 renal
U251 CNS = test system: U251 CNS
UACC-257 melanoma = test system: UACC-257 melanoma
UACC-62 melanoma = test system: UACC-62 melanoma
UO-31 renal = test system: UO-31 renal

Measured: TGI

O=C1CCCCC1C(O)(C(F)(F)F)C(F)(F)Cl (stereo unspecified)
not listed: UO-31 renal
> 10 µM: all other assays above

CC(=O)N=c1ccc2nc(N)nn(O)c-2c1
not listed: HCC-2998 colon | HOP-92 NSCLC | MALME-3M melanoma | RXF 393 renal
> 100 µM: all other assays above

O=C1C=CC(=O)N1c1ccc(I)cc1
33.6 µM: RXF 393 renal
82.3 µM: NCI/ADR-RES ovarian
34.1 µM: SK-MEL-5 melanoma
38.5 µM: UO-31 renal
72.3 µM: T-47D breast
35.1 µM: HCC-2998 colon
20.7 µM: 786-0 renal
52.7 µM: MDA-MB-231 breast | OVCAR-3 ovarian
13.9 µM: COLO 205 colon
41.2 µM: EKVX NSCLC
44.1 µM: SNB-75 CNS
> 77.5 µM: SF-268 CNS
35.3 µM: SK-MEL-28 melanoma
> 54.9 µM: U251 CNS
38 µM: DU-145 prostate
34.3 µM: CAKI-1 renal
55.5 µM: SF-295 CNS
60.2 µM: OVCAR-4 ovarian
12 µM: CCRF-CEM leukemia
49.3 µM: SW-620 colon
> 57.6 µM: SF-539 CNS
38.2 µM: HOP-62 NSCLC
42.9 µM: LOX IMVI melanoma
30.9 µM: HCT-116 colon
45.3 µM: MCF7 breast
33.1 µM: MALME-3M melanoma
45.1 µM: HT29 colon
33.9 µM: HCT-15 colon
66.3 µM: HS 578T breast
30.1 µM: MDA-N
46.3 µM: NCI-H226 lung
> 100 µM: OVCAR-8 ovarian
> 61.5 µM: SNB-19 CNS
> 67.3 µM: IGROV1 ovarian
> 86.3 µM: NCI-H460 lung
45.8 µM: KM12 colon
47.4 µM: NCI-H522 lung
47.6 µM: OVCAR-5 ovarian
31.2 µM: M14 melanoma
7.49 µM: MOLT-4 leukemia
22.1 µM: RPMI-8226 leukemia
32.5 µM: SK-OV-3 ovarian | UACC-257 melanoma
53.5 µM: K-562 leukemia
33.3 µM: ACHN renal
9.73 µM: HL-60(TB) leukemia
34.7 µM: MDA-MB-435
46.6 µM: HOP-92 NSCLC
39.2 µM: A498 renal
31.8 µM: UACC-62 melanoma
40.7 µM: PC-3 prostate | SK-MEL-2 melanoma
45.5 µM: SR leukemia
47 µM: A549 NSCLC
51.2 µM: NCI-H23 lung
36 µM: BT-549 breast
30.3 µM: TK-10 renal
48 µM: SN12C renal

OCC1OC(n2cnc3c(SCc4ccccc4)ncnc32)C(O)C1O (stereo unspecified)
8.52 µM: HL-60(TB) leukemia
3.55 µM: CCRF-CEM leukemia
> 31.4 µM: A498 renal
> 39.8 µM: MOLT-4 leukemia
> 61.4 µM: HS 578T breast
> 94.9 µM: COLO 205 colon
> 79.9 µM: HOP-92 NSCLC
37.4 µM: OVCAR-8 ovarian
> 100 µM: all other assays above
